Key:
[1] = target: T1, Interleukin-1 receptor-associated kinase 4 (Homo sapiens) (UniProt Q9NWZ3); test: Selectivity interaction (KinomeScan (DiscoverX)) EUB0000229b IRAK4; conditions: at 10 µM
T1 sequence (whole entry): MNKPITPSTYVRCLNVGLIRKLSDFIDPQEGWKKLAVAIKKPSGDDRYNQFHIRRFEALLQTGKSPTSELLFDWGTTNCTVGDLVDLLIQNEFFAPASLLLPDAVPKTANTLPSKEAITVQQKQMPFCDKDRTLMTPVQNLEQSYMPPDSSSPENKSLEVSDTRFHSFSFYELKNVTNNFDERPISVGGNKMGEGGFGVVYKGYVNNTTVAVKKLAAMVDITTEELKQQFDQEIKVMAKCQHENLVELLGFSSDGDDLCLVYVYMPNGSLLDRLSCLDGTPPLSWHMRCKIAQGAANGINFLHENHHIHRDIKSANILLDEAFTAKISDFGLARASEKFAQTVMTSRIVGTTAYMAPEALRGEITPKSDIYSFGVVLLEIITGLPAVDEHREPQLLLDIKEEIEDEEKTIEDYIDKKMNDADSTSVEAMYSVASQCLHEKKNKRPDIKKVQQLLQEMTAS

[2] = target: Protein polybromo-1 (Homo sapiens) (UniProt Q86U86); test: Selectivity interaction (Human bromodomain panel (DSF assay)) EUB0000233b PBRM1
[3] = target: T2, Mitogen-activated protein kinase 13 (Homo sapiens) (UniProt O15264); test: Selectivity interaction (Kinase panel (DSF assay)) EUB0001559a MAPK13
T2 sequence (whole entry): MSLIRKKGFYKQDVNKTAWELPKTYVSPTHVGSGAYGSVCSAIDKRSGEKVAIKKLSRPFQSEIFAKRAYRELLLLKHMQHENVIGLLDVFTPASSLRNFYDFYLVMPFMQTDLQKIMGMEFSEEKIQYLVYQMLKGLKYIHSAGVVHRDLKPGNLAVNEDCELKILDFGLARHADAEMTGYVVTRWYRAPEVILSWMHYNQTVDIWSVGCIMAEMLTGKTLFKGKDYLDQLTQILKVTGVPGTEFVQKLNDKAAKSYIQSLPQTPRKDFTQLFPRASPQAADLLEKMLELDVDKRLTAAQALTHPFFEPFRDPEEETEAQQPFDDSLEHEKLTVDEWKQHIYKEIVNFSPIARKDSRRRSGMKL

[4] = target: T3, Uncharacterized serine/threonine-protein kinase SBK3 (Homo sapiens) (UniProt P0C264); test: Selectivity interaction (KinomeScan (DiscoverX)) EUB0000595a SBK3; conditions: at 10 µM
T3 sequence (whole entry): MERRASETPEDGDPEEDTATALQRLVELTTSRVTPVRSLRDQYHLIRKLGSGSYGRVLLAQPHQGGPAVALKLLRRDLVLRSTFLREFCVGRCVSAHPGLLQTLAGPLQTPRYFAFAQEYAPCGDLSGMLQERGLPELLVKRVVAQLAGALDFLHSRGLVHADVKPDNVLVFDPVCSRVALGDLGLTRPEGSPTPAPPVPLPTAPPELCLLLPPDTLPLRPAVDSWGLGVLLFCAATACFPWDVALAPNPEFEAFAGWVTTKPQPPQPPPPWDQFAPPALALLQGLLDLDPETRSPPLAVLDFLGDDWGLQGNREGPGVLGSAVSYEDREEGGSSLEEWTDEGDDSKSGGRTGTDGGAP

[5] = target: Activin receptor type-2A (Homo sapiens) (UniProt P27037); test: Selectivity interaction (KinomeScan (DiscoverX)) EUB0000595a ACVR2A; conditions: at 10 µM
[6] = target: T4, Calcium/calmodulin-dependent protein kinase type IV (Homo sapiens) (UniProt Q16566); test: Selectivity interaction (KinomeScan (DiscoverX)) EUB0001619a CAMK4; conditions: at 1 µM
T4 sequence (whole entry): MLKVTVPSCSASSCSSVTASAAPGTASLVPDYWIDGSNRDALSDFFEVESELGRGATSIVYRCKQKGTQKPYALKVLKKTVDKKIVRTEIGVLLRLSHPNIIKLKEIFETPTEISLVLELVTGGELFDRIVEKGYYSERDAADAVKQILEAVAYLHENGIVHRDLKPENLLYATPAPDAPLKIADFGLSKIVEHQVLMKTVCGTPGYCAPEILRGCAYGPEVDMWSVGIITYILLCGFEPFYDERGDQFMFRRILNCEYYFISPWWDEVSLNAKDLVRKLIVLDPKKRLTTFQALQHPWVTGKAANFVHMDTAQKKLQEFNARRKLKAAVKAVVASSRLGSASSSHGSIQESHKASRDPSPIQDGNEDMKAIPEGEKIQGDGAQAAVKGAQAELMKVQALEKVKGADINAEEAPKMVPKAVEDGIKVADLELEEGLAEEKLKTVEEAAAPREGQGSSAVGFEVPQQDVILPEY

[7] = target: T5, Serine/threonine-protein kinase Nek3 (Homo sapiens) (UniProt P51956); test: Selectivity interaction (KinomeScan (DiscoverX)) EUB0000695a NEK3; conditions: at 100 nM
T5 sequence (whole entry): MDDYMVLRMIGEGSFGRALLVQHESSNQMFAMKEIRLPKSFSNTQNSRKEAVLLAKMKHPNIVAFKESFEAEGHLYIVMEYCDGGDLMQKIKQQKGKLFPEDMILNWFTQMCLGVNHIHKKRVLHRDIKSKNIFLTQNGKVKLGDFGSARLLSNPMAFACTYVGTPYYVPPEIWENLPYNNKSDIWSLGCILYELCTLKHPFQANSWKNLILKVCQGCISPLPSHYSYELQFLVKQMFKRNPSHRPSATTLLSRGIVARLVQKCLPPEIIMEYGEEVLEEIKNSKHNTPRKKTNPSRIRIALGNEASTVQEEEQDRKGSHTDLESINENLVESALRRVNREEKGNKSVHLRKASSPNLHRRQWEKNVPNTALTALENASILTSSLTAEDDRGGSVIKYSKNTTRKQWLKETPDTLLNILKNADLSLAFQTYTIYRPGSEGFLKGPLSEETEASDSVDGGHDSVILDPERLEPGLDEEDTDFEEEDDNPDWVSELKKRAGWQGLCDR

[8] = target: Homeodomain-interacting protein kinase 1 (Homo sapiens, UniProt Q86Z02); test: Selectivity interaction (KinomeScan (DiscoverX)) EUB0000695a HIPK1; conditions: at 100 nM
[9] = target: Angiopoietin-1 receptor (Homo sapiens) (UniProt Q02763); test: Selectivity interaction (KinomeScan (DiscoverX)) EUB0000695a TEK; conditions: at 100 nM
[10] = target: Proto-oncogene tyrosine-protein kinase Src (Homo sapiens, UniProt P12931); test: Selectivity interaction (KinomeScan (DiscoverX)) EUB0000695a SRC; conditions: at 100 nM
[11] = target: Tyrosine-protein kinase Yes (Homo sapiens) (UniProt P07947); test: Selectivity interaction (SelectScreen profiling (Invitrogen)) EUB0000607a YES1; conditions: at 2 µM
Tyrosine-protein kinase Yes (Homo sapiens), sequence (P07947 2-543 limits assumed): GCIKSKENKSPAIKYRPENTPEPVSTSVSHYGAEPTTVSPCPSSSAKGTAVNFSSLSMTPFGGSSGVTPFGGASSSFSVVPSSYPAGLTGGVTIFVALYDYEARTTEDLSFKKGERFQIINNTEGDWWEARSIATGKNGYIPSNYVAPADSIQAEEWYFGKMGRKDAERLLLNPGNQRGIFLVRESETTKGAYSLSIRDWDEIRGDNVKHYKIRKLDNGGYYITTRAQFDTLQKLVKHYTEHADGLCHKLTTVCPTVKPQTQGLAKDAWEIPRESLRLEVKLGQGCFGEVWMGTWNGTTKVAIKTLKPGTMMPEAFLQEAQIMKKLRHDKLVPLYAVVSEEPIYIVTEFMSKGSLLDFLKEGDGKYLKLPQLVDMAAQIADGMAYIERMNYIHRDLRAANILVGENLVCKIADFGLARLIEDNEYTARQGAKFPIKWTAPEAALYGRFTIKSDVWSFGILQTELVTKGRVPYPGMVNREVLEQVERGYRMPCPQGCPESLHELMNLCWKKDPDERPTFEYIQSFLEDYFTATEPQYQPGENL

Proto-oncogene tyrosine-protein kinase Src, sequence (P12931 2-536 limits assumed): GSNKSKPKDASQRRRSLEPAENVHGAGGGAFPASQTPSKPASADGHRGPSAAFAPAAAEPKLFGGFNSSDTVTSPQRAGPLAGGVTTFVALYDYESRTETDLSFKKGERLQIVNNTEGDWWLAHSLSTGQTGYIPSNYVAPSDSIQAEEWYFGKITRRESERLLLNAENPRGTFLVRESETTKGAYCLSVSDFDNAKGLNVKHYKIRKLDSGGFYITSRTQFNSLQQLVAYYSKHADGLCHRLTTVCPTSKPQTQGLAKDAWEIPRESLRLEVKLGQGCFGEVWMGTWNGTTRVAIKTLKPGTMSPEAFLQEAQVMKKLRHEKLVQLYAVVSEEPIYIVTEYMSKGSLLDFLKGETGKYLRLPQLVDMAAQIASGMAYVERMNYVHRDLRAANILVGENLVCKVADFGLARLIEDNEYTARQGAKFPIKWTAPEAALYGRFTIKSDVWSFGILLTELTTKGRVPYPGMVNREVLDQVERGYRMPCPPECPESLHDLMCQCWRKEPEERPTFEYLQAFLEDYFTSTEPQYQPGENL
Protein polybromo-1 (Homo sapiens), sequence (Q86U86 whole entry): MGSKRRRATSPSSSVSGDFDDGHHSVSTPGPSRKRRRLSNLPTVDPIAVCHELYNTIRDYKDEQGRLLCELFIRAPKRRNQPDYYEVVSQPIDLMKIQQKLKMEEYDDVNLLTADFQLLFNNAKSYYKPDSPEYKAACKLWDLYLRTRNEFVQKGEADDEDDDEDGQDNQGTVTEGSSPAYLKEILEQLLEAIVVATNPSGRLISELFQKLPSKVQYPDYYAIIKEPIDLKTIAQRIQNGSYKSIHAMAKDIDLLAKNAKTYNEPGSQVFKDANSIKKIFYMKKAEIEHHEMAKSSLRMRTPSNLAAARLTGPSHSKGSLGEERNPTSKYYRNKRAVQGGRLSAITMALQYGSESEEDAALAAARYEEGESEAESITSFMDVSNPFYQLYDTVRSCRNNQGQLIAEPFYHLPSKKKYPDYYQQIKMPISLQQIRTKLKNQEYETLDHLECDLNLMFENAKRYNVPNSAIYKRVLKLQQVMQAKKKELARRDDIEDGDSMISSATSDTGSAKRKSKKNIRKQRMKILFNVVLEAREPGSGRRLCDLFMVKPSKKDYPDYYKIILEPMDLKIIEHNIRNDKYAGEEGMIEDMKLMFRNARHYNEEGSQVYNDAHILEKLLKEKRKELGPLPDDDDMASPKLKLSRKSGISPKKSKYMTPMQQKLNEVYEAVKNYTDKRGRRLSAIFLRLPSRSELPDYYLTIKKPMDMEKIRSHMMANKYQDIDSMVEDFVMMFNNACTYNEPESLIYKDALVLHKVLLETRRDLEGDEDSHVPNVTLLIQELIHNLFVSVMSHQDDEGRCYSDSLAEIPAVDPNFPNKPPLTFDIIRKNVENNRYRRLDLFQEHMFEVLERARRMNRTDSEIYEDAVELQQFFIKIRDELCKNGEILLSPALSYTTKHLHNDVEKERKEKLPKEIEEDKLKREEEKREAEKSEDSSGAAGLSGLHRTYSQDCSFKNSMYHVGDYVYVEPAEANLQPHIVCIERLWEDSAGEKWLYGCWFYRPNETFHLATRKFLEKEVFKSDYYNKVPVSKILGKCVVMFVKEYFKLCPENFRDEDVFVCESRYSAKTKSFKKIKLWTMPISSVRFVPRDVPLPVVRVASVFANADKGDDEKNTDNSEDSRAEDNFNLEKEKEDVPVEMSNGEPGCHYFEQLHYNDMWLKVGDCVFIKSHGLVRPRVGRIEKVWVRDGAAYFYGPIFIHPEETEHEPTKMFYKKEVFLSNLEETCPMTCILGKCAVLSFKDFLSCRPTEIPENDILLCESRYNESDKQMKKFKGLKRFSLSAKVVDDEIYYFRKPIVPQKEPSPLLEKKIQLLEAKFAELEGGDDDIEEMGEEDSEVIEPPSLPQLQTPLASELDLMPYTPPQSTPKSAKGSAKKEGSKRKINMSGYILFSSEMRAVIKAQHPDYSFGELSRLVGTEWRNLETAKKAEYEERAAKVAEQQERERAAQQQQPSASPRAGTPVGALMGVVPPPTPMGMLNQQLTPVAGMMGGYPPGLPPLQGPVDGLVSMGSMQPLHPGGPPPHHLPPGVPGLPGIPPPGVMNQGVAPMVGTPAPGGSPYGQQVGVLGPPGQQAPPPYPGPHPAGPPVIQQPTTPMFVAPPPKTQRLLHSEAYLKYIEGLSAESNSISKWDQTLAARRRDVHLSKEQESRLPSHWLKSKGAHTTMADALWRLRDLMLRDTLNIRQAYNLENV
Angiopoietin-1 receptor (Homo sapiens), sequence (Q02763 whole entry): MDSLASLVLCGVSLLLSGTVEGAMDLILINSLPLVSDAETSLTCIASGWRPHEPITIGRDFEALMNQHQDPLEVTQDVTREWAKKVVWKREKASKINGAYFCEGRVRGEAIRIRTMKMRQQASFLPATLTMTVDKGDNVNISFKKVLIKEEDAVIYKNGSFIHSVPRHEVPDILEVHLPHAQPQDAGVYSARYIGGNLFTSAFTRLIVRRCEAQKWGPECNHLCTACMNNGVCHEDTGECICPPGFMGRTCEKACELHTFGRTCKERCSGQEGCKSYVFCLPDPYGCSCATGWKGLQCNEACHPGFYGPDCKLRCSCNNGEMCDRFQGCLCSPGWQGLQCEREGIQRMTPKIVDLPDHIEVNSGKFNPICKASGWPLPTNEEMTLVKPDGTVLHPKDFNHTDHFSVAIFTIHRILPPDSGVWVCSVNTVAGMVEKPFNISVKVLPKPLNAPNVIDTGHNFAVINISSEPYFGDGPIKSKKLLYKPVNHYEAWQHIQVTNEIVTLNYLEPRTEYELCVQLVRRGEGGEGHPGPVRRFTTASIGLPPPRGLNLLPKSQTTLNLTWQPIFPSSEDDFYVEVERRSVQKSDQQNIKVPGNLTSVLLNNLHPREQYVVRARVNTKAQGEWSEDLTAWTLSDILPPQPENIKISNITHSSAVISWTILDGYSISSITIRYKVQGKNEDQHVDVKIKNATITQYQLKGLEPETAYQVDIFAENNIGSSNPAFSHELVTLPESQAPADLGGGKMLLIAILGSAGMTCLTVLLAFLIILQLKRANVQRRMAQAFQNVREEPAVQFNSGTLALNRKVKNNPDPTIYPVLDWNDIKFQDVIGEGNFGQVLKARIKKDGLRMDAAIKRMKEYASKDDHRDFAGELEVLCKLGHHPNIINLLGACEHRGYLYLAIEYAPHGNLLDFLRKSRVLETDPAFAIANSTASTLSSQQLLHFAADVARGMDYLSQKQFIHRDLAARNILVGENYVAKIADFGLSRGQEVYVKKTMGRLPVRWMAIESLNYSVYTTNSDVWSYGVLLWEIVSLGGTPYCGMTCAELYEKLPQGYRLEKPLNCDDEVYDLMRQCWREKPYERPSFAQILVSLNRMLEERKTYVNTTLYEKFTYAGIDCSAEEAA
Activin receptor type-2A (Homo sapiens), sequence (P27037 whole entry): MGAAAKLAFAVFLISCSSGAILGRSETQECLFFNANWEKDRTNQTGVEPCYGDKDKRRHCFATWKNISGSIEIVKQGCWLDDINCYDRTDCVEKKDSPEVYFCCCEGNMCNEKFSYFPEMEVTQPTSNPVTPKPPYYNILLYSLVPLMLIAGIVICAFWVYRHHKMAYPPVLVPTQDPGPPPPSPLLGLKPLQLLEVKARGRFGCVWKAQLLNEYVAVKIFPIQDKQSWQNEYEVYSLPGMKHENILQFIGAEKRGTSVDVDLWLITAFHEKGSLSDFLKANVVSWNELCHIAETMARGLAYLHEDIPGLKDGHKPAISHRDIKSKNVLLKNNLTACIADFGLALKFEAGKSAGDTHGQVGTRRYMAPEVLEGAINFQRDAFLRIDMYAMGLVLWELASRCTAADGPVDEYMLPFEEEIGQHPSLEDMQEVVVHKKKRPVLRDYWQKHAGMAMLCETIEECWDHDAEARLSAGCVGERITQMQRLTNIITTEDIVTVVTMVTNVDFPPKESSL

COc1cc(N(C)c2ccnc3ccc(C(F)(F)F)cc23)cc(OC)c1OC
% binding [1]: 85%

CN(C)CCCOc1ccc(-c2cc(NCCCn3cccn3)nc(S(C)(=O)=O)n2)cc1
dTM [2]: < 2 K

CN(C(=O)c1cnn2cccnc12)c1cc2c(cc1N1CCOCC1)C(=O)N(C[C@@H](F)C(C)(C)O)C2
dTM [3]: 1.1 K

COCC(=O)NC/C=C/c1ccc2ncnc(Nc3ccc(Oc4ccc(C)nc4)c(C)c3)c2c1 [CP-724714]
% of control [4]: 100%
% of control [5]: 100%

N#Cc1cccc(-c2c[nH]c3ncnc(N4CCOCC4)c23)c1
% of control [6]: 100%

Cc1cc(F)c(C(=O)Nc2cccc(-c3nncn3C(C)C)n2)cc1-n1cnc(C2CC2)c1
% of control [7]: 84%
% of control [8]: 100%
% of control [9]: 100%
% of control [10]: 100%

CNC(=O)Nc1ccc(-c2nc(N3CC4CCC(C3)O4)c3cnn(C4CCC5(CC4)OCCO5)c3n2)cc1
% of inhibition [11]: 2%

Reference: ChEMBL document CHEMBL5465560, “Selectivity Literature for EUbOPEN Chemogenomic Library” (2024)
